Measured values from paper PMC7529893, “Structural basis for substrate recognition and chemical inhibition of oncogenic MAGE ubiquitin ligases” (Nature Communications, 2020).

These compounds were tested against T1, MAGE-A11:PCF11 interaction (GST-MAGE-A11 and FAM-PCF11_4) (Homo sapiens, UniProt P43364) (assay: TR-FRET primary / single point screen at 15 µM). Conditions: single point TR-FRET screening of 797 quinoline compounds against MAGE-A11:PCF11.
T1 construct: GST-MAGE-A11 MHD (human MAGE-A11 MHD amino acid 218-429); made in house; host or cells: E. coli BL21(DE3)
T1 sequence (P43364 218-429): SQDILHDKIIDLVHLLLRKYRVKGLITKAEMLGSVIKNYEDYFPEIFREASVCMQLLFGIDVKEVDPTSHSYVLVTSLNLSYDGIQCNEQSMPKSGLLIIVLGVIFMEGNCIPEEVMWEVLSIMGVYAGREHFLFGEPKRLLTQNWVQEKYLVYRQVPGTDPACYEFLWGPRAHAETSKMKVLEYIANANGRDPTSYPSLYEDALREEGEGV
Format: binding
Protocol: The TR-FRET assay buffer with a formula of 50 mM Tris pH 7.5, 20 mM MgCl2, 0.1 mg/ml BSA and 1 mM DTT was freshly prepared before each experiment. All TR-FRET assays were performed in black 384-well plates with 20 µl/well assay volume in the TR-FRET assay buffer at room temperature (~25 °C). All peptides or compounds were solubilized in DMSO. To test the competitive activity of peptides or compounds against the interaction between GST-MAGE-A11 MHD and FAM-PCF11_4 peptide, 10 µl/well peptide or compound at specified concentration was dispensed into a black 384-well low volume plate, followed by 5 µl/well FAM-PCF11_4 (800 nM), 5 µl/well Tb-anti-GST (20 nM), and GST-MAGE-A11 MHD (20 nM). The assay components in each well was then mixed by shaking the plate on an IKA MTS 2/4 digital microtiter plate shaker (IKA Works; Wilmington, NC, USA) for 1 min. The plate was further centrifuged in an Eppendorf 5810 centrifuge with an A-4-62 swing-bucket rotor (Eppendorf AG, Hamburg, Germany) at 201 g for 30 s. The plate was then incubated for 90 min with a lid to avoid light exposure to the assay components. After incubation, the fluorescent emission signals at 520 nm and 490 nm channels of individual wells were measured with a PHERAstar FS plate reader (BMG Labtech; Durham, NC, USA) by using a 340 nm excitation filter, 100 µs delay time, and 200 µs integration time. The TR-FRET fluorescence emission ratio (TR-FRET signal) for each well was presented as 10,000 × 520 nm/490 nm, which was used directly for curve fitting, or further converted to %Inhibition based on the respective positive and negative controls. The graphic software GraphPad Prism 4.81 (GraphPad Software; La Jolla, CA, USA) was used to generate curves and derive IC50 values of tested peptides or compounds, if applicable. TR-FRET screen for identifying MAGE-A11 small molecule inhibitors was performed as follows. The primary one-concentration screening and subsequent 10 or 20-concentration dose-response tests were accomplished with an automated High Throughput Screening system (HighRes Biosolutions, Beverly, MA)[30]. In the primary screening, 15 µl/well FAM-PCF11_4 (267 nM) was first dispensed with a Multidrop Combi Reagent Dispenser (Thermo Fisher Scientific, Waltham, MA) to black 384-well low-volume assay plates. The plates were spun down with a Velocity11 VSpin microplate centrifuge (Agilent Technologies, Santa Clara, CA). In total, 30 nl/well of 10 mM compound/DMSO solutions, or DMSO alone, were transferred from compound plates (the St. Jude FDA drug and bioactive library, Drug-like library and Lead-like library) or a control plate to the assay plates with a Pin Tool (V&P Scientific, San Diego, CA). The compounds were arrayed in columns 3–12 and columns 15–24 of compound plates. The controls were arrayed in columns 1, 2, 13, and 14 of a compound plate. In all, 5 µl/well Tb-anti-GST (20 nM) and GST-MAGE-A11 (20 nM) or 5 µl/well Tb-anti-GST (20 nM) alone was then dispensed to selected wells with a Multidrop Combi Reagent Dispenser. The final assay volume was 20 µl/well. […] The final tested compound concentration was 15 µM. The final FAM-PCF11_4 concentration was 200 nM and the final Tb-anti-GST concentration was 5 nM. The final GST-MAGE-A11 concentration was 5 nM except for those selected positive control wells in which GST-MAGE-A11 was not presented. The plates were then shaken with a big bear shaker (Big Bear Automation, Santa Clara, California) and spun down with the Velocity11 VSpin microplate centrifuge for 20 s. The plates were then incubated at room temperature in a Liconic incubator (Liconic US, Woburn, MA) for 90 min. The TR-FRET signals for individual wells were measured with a PHERAstar FS plate reader. The %Inhibition of each tested inhibitor was calculated by using Eq. 1. Those inhibitors with %Inhibition >30% in the primary screening were selected for further dose-response test, along with additional newly synthesized compounds. […]

| Structure (SMILES) | percent inhibition (TR-FRET) |
| --- | --- |
| CN(C)CCNc1c2c(nc3ccccc13)CCC2 [SJ000013622] | 3.285 |
| CCOC(=O)c1cnc2c(ccc3ccccc32)c1NCCN(C)C [SJ000019487] | 6.418 |
| CCN(CC)CC(=O)Nc1c2c(nc3ccccc13)CCCC2 [SJ000019523] | 2.741 |
| CCOC(=O)c1cnc2c(Cl)c(Cl)ccc2c1NCCN(C)C [SJ000027266] | 2.575 |
| CCOC(=O)c1cnc2ccc(OCC)cc2c1NCCN(C)C [SJ000027288] | 10.6575 |
| CCOC(=O)c1ccc2ncc(C(=O)OCC)c(NCCN3CCOCC3)c2c1 [SJ000031347] | 0.6542 |
| CCOC(=O)c1cnc2c(C)cc(C)cc2c1NCCN(C)C [SJ000037396] | 4.92 |
| CCc1ccc2ncc(S(=O)(=O)c3ccccc3)c(N3CCN(C)CC3)c2c1 [SJ000083946] | -6.249 |
| COc1ccc2ncc(S(=O)(=O)c3ccccc3)c(N3CCN(C)CC3)c2c1 [SJ000083947] | -2.0938 |
| CCOc1ccc2ncc(S(=O)(=O)c3ccccc3)c(N3CCN(C)CC3)c2c1 [SJ000083948] | -3.938 |
| CN1CCN(c2c(S(=O)(=O)c3ccccc3)cnc3ccc(Cl)cc23)CC1 [SJ000083950] | -5.3743 |
| COc1ccc2ncc(S(=O)(=O)c3ccc(Cl)cc3)c(N3CCN(C)CC3)c2c1 [SJ000083952] | -3.658 |
| CCc1ccc2ncc(S(=O)(=O)c3ccc(OC)cc3)c(N3CCN(C)CC3)c2c1 [SJ000083954] | -5.969 |
| COc1ccc(S(=O)(=O)c2cnc3cc(OC)c(OC)cc3c2N2CCN(C)CC2)cc1 [SJ000083955] | 0.8227 |
| CCN1CCN(c2c(S(=O)(=O)c3ccccc3)cnc3ccc(C)cc23)CC1 [SJ000083956] | -3.448 |
| CCN1CCN(c2c(S(=O)(=O)c3ccccc3)cnc3ccc(OC)cc23)CC1 [SJ000083958] | 0.1242 |
| CCOc1ccc2ncc(S(=O)(=O)c3ccccc3)c(N3CCN(CC)CC3)c2c1 [SJ000083959] | 4.534 |
| CCN1CCN(c2c(S(=O)(=O)c3ccccc3)cnc3ccc(Cl)cc23)CC1 [SJ000083960] | 4.43 |
| CCc1ccc2ncc(S(=O)(=O)c3ccc(C)cc3)c(N3CCN(CC)CC3)c2c1 [SJ000083962] | 2.377 |
| CCOc1ccc2ncc(S(=O)(=O)c3ccc(C)cc3)c(N3CCN(CC)CC3)c2c1 [SJ000083964] | -5.899 |
| CCN1CCN(c2c(S(=O)(=O)c3ccc(Cl)cc3)cnc3ccc(C)cc23)CC1 [SJ000083967] | -3.0982 |
| CCc1ccc2ncc(S(=O)(=O)c3ccc(Cl)cc3)c(N3CCN(CC)CC3)c2c1 [SJ000083968] | -19.1318 |
| CCN1CCN(c2c(S(=O)(=O)c3ccc(Cl)cc3)cnc3cc(OC)c(OC)cc23)CC1 [SJ000083970] | -6.809 |
| CCN1CCN(c2c(S(=O)(=O)c3ccc(OC)cc3)cnc3cc(OC)c(OC)cc23)CC1 [SJ000083972] | 7.411 |
| Cc1ccc2ncc(S(=O)(=O)c3ccccc3)c(N3CCN(c4ccccc4)CC3)c2c1 [SJ000083973] | -29.7042 |
| CCOc1ccc2ncc(S(=O)(=O)c3ccccc3)c(N3CCN(c4ccccc4)CC3)c2c1 [SJ000083975] | -12.0602 |
| O=S(=O)(c1ccccc1)c1cnc2ccc(F)cc2c1N1CCN(c2ccccc2)CC1 [SJ000083976] | -31.1045 |

Second part, the compound after the results:

| percent inhibition (TR-FRET) | Structure (SMILES) |
| --- | --- |
| 9.598 | O=C(O)CCCNC(=O)CNc1c2ccccc2nc2ccccc12 [SJ000016432] |
| 22.7145 | CC(Nc1c2ccccc2nc2ccccc12)C(=O)NC(CC(N)=O)C(=O)O (centres unmarked) [SJ000016433] |
| 3.834 | CCOC(=O)c1cnc2c(C)cc(Cl)cc2c1NCCN(C)C [SJ000027210] |
| -0.3915 | CCOC(=O)c1cnc2ccc(C)cc2c1NCCN1CCOCC1 [SJ000027268] |
| 5.291 | CCOC(=O)c1cnc2ccc(OCC)cc2c1NCCN1CCOCC1 [SJ000027289] |
| -47.2425 | CCOC(=O)c1cnc2ccc(Br)cc2c1NCCN1CCOCC1 [SJ000031339] |
| -1.333 | CCOC(=O)c1cnc2c(C)c(Cl)ccc2c1NCCN(C)C [SJ000037393] |
| -0.6045 | CCc1nc2ccccc2c(NC(=O)CNC(C)(C)CC(C)(C)C)c1C [SJ000049110] |
| 0.6542 | CCN(CC)CC(=O)Nc1c2c(nc3ccccc13)CCC2 [SJ000049655] |
| -8.419 | Cc1ccc2ncc(S(=O)(=O)c3ccccc3)c(N3CCN(C)CC3)c2c1 [SJ000083945] |
| -11.5001 | CN1CCN(c2c(S(=O)(=O)c3ccccc3)cnc3ccc(F)cc23)CC1 [SJ000083949] |
| 1.3128 | COc1cc2ncc(S(=O)(=O)c3ccc(C)cc3)c(N3CCN(C)CC3)c2cc1OC [SJ000083951] |
| 4.674 | COc1cc2ncc(S(=O)(=O)c3ccc(Cl)cc3)c(N3CCN(C)CC3)c2cc1OC [SJ000083953] |
| 3.238 | CCc1ccc2ncc(S(=O)(=O)c3ccccc3)c(N3CCN(CC)CC3)c2c1 [SJ000083957] |
| 0.2213 | CCN1CCN(c2c(S(=O)(=O)c3ccc(C)cc3)cnc3ccc(C)cc23)CC1 [SJ000083961] |
| -3.917 | CCN1CCN(c2c(S(=O)(=O)c3ccc(C)cc3)cnc3ccc(OC)cc23)CC1 [SJ000083963] |
| 7.146 | CCN1CCN(c2c(S(=O)(=O)c3ccc(C)cc3)cnc3cc(OC)c(OC)cc23)CC1 [SJ000083965] |
| -4.358 | CCN1CCN(c2c(S(=O)(=O)c3ccc(C)cc3)cnc3ccc(Cl)cc23)CC1 [SJ000083966] |
| -4.989 | CCOc1ccc2ncc(S(=O)(=O)c3ccc(Cl)cc3)c(N3CCN(CC)CC3)c2c1 [SJ000083969] |
| -6.389 | CCOc1ccc2ncc(S(=O)(=O)c3ccc(OC)cc3)c(N3CCN(CC)CC3)c2c1 [SJ000083971] |
| -132.977 | COc1ccc2ncc(S(=O)(=O)c3ccccc3)c(N3CCN(c4ccccc4)CC3)c2c1 [SJ000083974] |

Same assay, conditions: single point TR-FRET screening of quinoline compounds against MAGE-A11:PCF11; 15 µM

| Structure (SMILES) | percent inhibition (TR-FRET) |
| --- | --- |
| CN(C)CCCNc1c2c(nc3ccccc13)CCC2 [SJ000029259] | 24.0531 |
| CN(C)CCCNc1c2ccccc2nc2ccccc12 [SJ000044378] | 16.7674 |

Continued, values first:

| percent inhibition (TR-FRET) | Structure (SMILES) |
| --- | --- |
| 6.349 | Clc1ccc2c(NCCCNCc3ccco3)ccnc2c1 [SJ000000502] |
| 14.9289 | CCOC(=O)c1cnc2c(C)cc(C)cc2c1NCCCN(C)C [SJ000037397] |
| 20.1038 | NC(=O)CC(Nc1c2ccccc2nc2ccccc12)C(=O)O (centres unmarked) [SJ000044383] |
